In patent US8609173B2, “Compositions comprising sweetness enhancers and methods of making them” (Senomyx Inc., priority 2008, dated 2013):
≈ marks a conversion by molar mass, not a printed value.

Columns and labels:
[1] = Solubility in buffers and food grade solvents (Table 14); assay type: physicochemical
Procedure: Solubility of 3-(4-amino-2,2-dioxide-1H-benzo[c][1,2,6]thiadiazin-5-yloxy)-2′,2′-dimethyl-N-propylpropanamide
Various solutions of 3-(4-amino-2,2-dioxide-1H-benzo[c][1,2,6]thiadiazin-5-yloxy)-2′,2′-dimethyl-N-propylpropanamide 3-(4-amino-2,2-dioxide-1H-benzo[c][1,2,6]thiadiazin-5-yloxy)-2′,2′-dimethyl-N-propylpropanamide were prepared as indicated below.

External panelists [2] = assay: Line scale sensory test, Example 6, fructose as sweetener, pH 7.1; assay type: in vivo, Human; design: Average Sweetness / Average Bitterness: scale not given here
Procedure: Sensory evaluations were performed using fructose as the sweetener and 3-(4-amino-2,2-dioxide-1H-benzo[c][1,2,6]thiadiazin-5-yloxy)-2′,2′-dimethyl-N-propylpropanamide as the sweetness enhancer, using methods similar to those using sucrose, above. […]

Panelists = assay: Paired comparison taste test, flavored water; assay type: in vivo, Human
Procedure: Two sweetened water solutions were prepared and compared: Flavored Water with 9% Sucrose vs. Flavored Water with 6% Sucrose+2.3 ppm (6.49 μM) of 5-(neopentyloxy)-1H-benzo[c][1,2,6]thiadiazin-4-amino-2,2-dioxide.
Mixing procedures: Dissolve acid into the water using a Lightnin® blender, mix for 5 minutes. Add sugar and continue to mix until dissolved. Add flavors last. Dissolve Compound A into a 0.50% propylene glycol mixture, add last and mix for another 5 minutes. Procedure:
Panelists evaluated two sweetened water solutions in a paired comparison taste test procedure and were instructed to select the sweeter of the two samples. They perform a total of three paired comparison tests each containing the following samples: Flavored Water with 9% Sucrose vs. Flavored Water with 6% Sucrose+2.3 ppm (6.49 μM) 5-(neopentyloxy)-1H-benzo[c][1,2,6]thiadiazin-4-amino-2,2-dioxide.
Two sweetened water solutions were prepared and compared: Flavored Water with 9% Sucrose vs. Flavored Water with 6% Sucrose+2.44 ppm (6.49 μM) of 3-(4-amino-2,2-dioxide-1H-benzo[c][1,2,6]thiadiazin-5-yloxy)-2′,2′-dimethyl-N-propylpropanamide.
Panelists evaluated two sweetened water solutions in a paired comparison taste test procedure and were instructed to select the sweeter of the two samples. They perform a total of three paired comparison tests each containing the following samples: Flavored Water with 9% Sucrose vs. Flavored Water with 6% Sucrose+2.44 ppm (6.49 μM) 3-(4-amino-2,2-dioxide-1H-benzo[c][1,2,6]thiadiazin-5-yloxy)-2′,2′-dimethyl-N-propylpropanamide.

External panelists [3] = assay: Line scale (15-point sucrose equivalence) sensory test, Example 3A/3C, sucrose or LSB, pH 7.1; assay type: in vivo, Human; design: key to Average Sweetness / Average Bitterness: 15-point scale: 0 = 0% sucrose to 15 = 15% sucrose; references = 5
Procedure: Several types of sensory tests were used to determine the efficacy of 5-(neopentyloxy)-1H-benzo[c][1,2,6]thiadiazin-4-amino-2,2-dioxide in enhancing sweetness of sucrose. Two types of tests were conducted: • 1) Sensory scaling tests were performed using a 15-point percent sucrose equivalence scale for sweetness in order to evaluate sweetness enhancement 5-(neopentyloxy)-1H-benzo[c][1,2,6]thiadiazin-4-amino-2,2-dioxide in sucrose, or in fructose. • 2) Paired comparison tests (2-alternative forced choice difference tests) were used to determine sweetness equivalence for solutions of sucrose vs. 5-(neopentyloxy)-1H-benzo[c][1,2,6]thiadiazin-4-amino-2,2-dioxide or buffer vs. 5-(neopentyloxy)-1H-benzo[c][1,2,6]thiadiazin-4-amino-2,2-dioxide. Stimuli:
Tests were performed with sucrose or fructose. Sweetener was evaluated with and/or without 5-(neopentyloxy)-1H-benzo[c][1,2,6]thiadiazin-4-amino-2,2-dioxide at the appropriate concentration(s).
5-(Neopentyloxy)-1H-benzo[c][1,2,6]thiadiazin-4-amino-2,2-dioxide was prepared as a concentrated stock solution in ethanol to ensure dissolution of the compound. Therefore, all taste solutions contained 0.1% ethanol final concentration. Samples without compound also contained 0.1% ethanol. Low sodium phosphate buffer consists of 0.3 mM KCl, 0.5 mM Na2HPO4, and 0.175 mM KH2PO4.
In scaling test situations, the samples were rated on a 15-point scale for sweetness, ranging from 0=0% sucrose to 15=15% sucrose. To evaluate attributes other than sweetness, references are used for training and are prepared according to the table below. Note that each reference was given a score of 5 on the 15-point scale.
External panelists were used for the tests. The exact number of panelists is reported with test results. Subjects were instructed not to eat or drink anything (except water) for at least 1 hour prior to the test.
Panelists rinsed their mouths with water prior to starting any test. Samples were presented to panelists in a randomized, counterbalanced order. Panelists rinsed with water and had up to a 1 minute delay to clear the mouth of any tastes after each evaluation. Two replicates of each test were performed, unless otherwise noted.

SMILES: CCCNC(=O)C(C)(C)COc1cccc2c1C(N)=NS(=O)(=O)N2 [3-(4-amino-2,2-dioxide-1H-benzo[c][1,2,6]thiadiazin-5-yloxy)-2′,2′-dimethyl-N-propylpropanamide]
- Solubility (ppm) ([1]; Citric Acid Buffer, pH 2.8): 50 ppm
- Solubility (ppm) ([1]; Citric Acid Buffer, pH 4.0): 50 ppm
- Solubility (ppm) ([1]; Ethanol): 3757 ppm
- Solubility (ppm) ([1]; Glycerol): 2800 ppm
- Solubility (ppm) ([1]; Phosphate Buffer, pH 7.1): 602 ppm
- Solubility (ppm) ([1]; Propylene Glycol (PG)): 6096 ppm
- Solubility (ppm) ([1]; Triacetin): 567 ppm
- solubility ([1]; aqueous buffer, Citric Acid Buffer, pH 4.0): 140 µM (≈ 49.6 µg/mL)
- aqueous solubility (conclusion) ([1]; aqueous buffers pH 2.8-7.1): pH dependent, and lower solubility was found at low pH
- solubility ([1]; citric acid buffer, pH 2.8, aqueous buffer): 140 µM (≈ 49.6 µg/mL)
- solubility ([1]; ethanol, organic solvent or mixture): 10600 µM (≈ 3760 µg/mL)
- solubility ([1]; glycerol, organic solvent or mixture): 7900 µM (≈ 2800 µg/mL)
- solubility ([1]; organic solvent or mixture, Propylene Glycol (PG)): 17200 µM (≈ 6100 µg/mL)
- solubility ([1]; phosphate buffer, pH 7.1, aqueous buffer): 1700 µM (≈ 603 µg/mL)
- solubility ([1]; triacetin, organic solvent or mixture): 1600 µM (≈ 567 µg/mL)
- off tastes (External panelists [2]; 25 μM compound in 6% fructose, LSB, pH 7.1): no significant off tastes
- Average Sweetness (External panelists [2]; 30 μM (10.6 ppm) compound, no fructose, pH 7.1, n = 30): 0.6
- off tastes (External panelists [2]; 30.0 μM and 40 μM compound): no significant off tastes
- Average Bitterness (External panelists [2]; 30 μM compound, no fructose, n = 30): 0.4
- Sweetness vs fructose solutions (conclusion) (External panelists [2]; 30.0 μM compound, p>0.10): not significantly different in sweetness compared to 0% and 2% fructose respectively
- Average Sweetness (External panelists [2]; 40 μM (14.2 ppm) compound, no fructose, pH 7.1, n = 30): 1.1
- Average Bitterness (External panelists [2]; 40 μM compound, no fructose, n = 30): 0.6
- Sweetness vs fructose solutions (conclusion) (External panelists [2]; 40 μM compound, p>0.10): not significantly different in sweetness compared to 0% and 2% fructose respectively
- off tastes (External panelists [2]; 100 μM compound in 6% fructose, LSB, pH 7.1): no significant off tastes
- Average Sweetness (External panelists [2]; 6% Fructose + 25 μM (8.9 ppm) compound, pH 7.1, n = 26): 7.8
- Average Bitterness (External panelists [2]; 6% Fructose + 25 μM compound, n = 26): 0.2
- Average Sweetness (External panelists [2]; 6% Fructose + 100 μM (35.4 ppm) compound, pH 7.1, n = 14): 9.2
- Average Bitterness (External panelists [2]; 6% Fructose + 100 μM compound, n = 14): 0.3
- Sweetness vs fructose solutions (conclusion) (External panelists [2]; 6% fructose + 25 μM compound, p>0.05): significantly sweeter than 6% fructose
- Sweetness vs fructose solutions (conclusion) (External panelists [2]; 6% fructose + 100 μM compound, p>0.10): not significantly different than 8% or 9% fructose
- Sample selected as sweeter by panelists, Total (Panelists; Flavored Water with 6% Sucrose + 2.44 ppm (6.49 μM) compound chosen, vs 9% Sucrose, n = 42): 20
- Sweetness comparison (conclusion) (Panelists; Flavored Water with 6% Sucrose + 2.44 ppm (6.49 μM) compound vs 9% Sucrose, p>0.10): not significantly different in sweetness

SMILES: OC[C@H]1O[C@@](CO)(O[C@H]2O[C@H](CO)[C@@H](O)[C@H](O)[C@H]2O)[C@@H](O)[C@@H]1O [Sucrose, sucrose]
- Average Sweetness (External panelists [3]; 2% Sucrose, Table 10, n = 14): 2.1
- Average Bitterness (External panelists [3]; 2% Sucrose, Table 12, n = 14): 0.1
- Average Sweetness (External panelists [3]; 4% Sucrose, Table 10, n = 14): 3.8
- Average Bitterness (External panelists [3]; 4% Sucrose, Table 12, n = 14): 0.0
- Average Sweetness (External panelists [3]; 6% Sucrose, Table 10, n = 14): 6.0
- Average Sweetness (External panelists [3]; 6% Sucrose, Table 11, n = 14): 7.3
- Average Bitterness (External panelists [3]; 6% Sucrose, Table 12, n = 14): 0.4
- Average Bitterness (External panelists [3]; 6% Sucrose, Table 13, n = 14): 0.4
- Average Bitterness (External panelists [3]; 6% Sucrose, pH 7.1, n = 32): 0.3
- Average Sweetness (External panelists [3]; 6% Sucrose, pH 7.1, n = 32): 6.5
- Average Sweetness (External panelists [3]; 8% Sucrose, Table 11, n = 14): 8.6
- Average Bitterness (External panelists [3]; 8% Sucrose, Table 13, n = 14): 0.4
- Average Bitterness (External panelists [3]; 8% Sucrose, pH 7.1, n = 32): 0.3
- Average Sweetness (External panelists [3]; 8% Sucrose, pH 7.1, n = 32): 7.9
- Average Sweetness (External panelists [3]; 9% Sucrose, Table 11, n = 14): 9.4
- Average Bitterness (External panelists [3]; 9% Sucrose, Table 13, n = 14): 0.6
- Average Bitterness (External panelists [3]; 9% Sucrose, pH 7.1, n = 32): 0.2
- Average Sweetness (External panelists [3]; 9% Sucrose, pH 7.1, n = 32): 8.9
- Average Sweetness (External panelists [3]; 10% Sucrose, Table 11, n = 14): 9.6
- Average Bitterness (External panelists [3]; 10% Sucrose, Table 13, n = 14): 0.2
- Average Bitterness (External panelists [3]; 10% Sucrose, pH 7.1, n = 32): 0.3
- Average Sweetness (External panelists [3]; 10% Sucrose, pH 7.1, n = 32): 9.3
